Experimental data as given in patent US20020045191A1, “Inhibition of the SRC kinase family pathway as a method of treating HBV infection and hepatocellular carcinoma” (priority 2000, published 2002).

Assays:
[1] = test system: c-Src; experiment: c-Src immunoprecipitation and in vitro kinase assay (auto-phosphorylation, enolase trans-phosphorylation), NIH 3T3 cells; format: cell-based; conditions: serum-starved NIH 3T3 cells, PDGF (100 ng/ml) for 5 minutes
Description: FIG. 1. Serum-starved NIH 3T3 cells were infected with AdCMV-X or -Xo viruses, c-Src or c-Fyn was immunoprecipitated, the pellet washed and assayed by incubation with the substrate enolase and [γ-^32P] ATP. Products were resolved by SDS-10%-PAGE then visualized and quantitiated by PhosphorImage analysis.
c-Src (FIG. 1A) or c-Fyn (FIG. 1B) were immunoprecipitated 8 h p.i. from NIH 3T3 cell lysates expressing HBx or HBxo. Where indicated, cells were incubated with PDGF (100 ng/ml) for 5 min.
Src kinase assays were carried out essentially as described (Kypta et al., 1990, Cell 62:481-492). Briefly, NIH 3T3 or Chang cells were lysed in buffer containing 1% NP-40, 150 mM NaCl, 20 mM Tris HCl pH 8, 2.5 mM EDTA, 1 mM Na3VO4, 50 mM NaF, 1 mM PMSF, 10 μg/ml aprotinin, and 10 μg/ml leupeptin. Src and Fyn kinase activity were measured by immunoprecipitating either Src (1 μg anti-Src antibodies) or Fyn (1 μg/ml anti-Fyn antibodies) from equal amounts of cell lysate. […] For the reactions containing the Src peptide substrate, TCA was added to a final concentration of 20%, an aliquot was spotted onto phosphocellulose paper (UBI), the filters were washed 3×5 minutes in 0.75% phosphoric acid and once in acetone, dried and analyzed by scintillation counting. […]

[2] = test system: HBV; experiment: HBV DNA replication in cytoplasmic core particles, Southern blot, HepG2 cells; format: cell-based, hepatitis B virus; conditions: for increase of reverse transcription and DNA replication of (HBx−)HBV: HepG2 cells, 4 d, valinomycin 1 nM, thapsigargin 20 nM
[3] = test system: Pyk2; experiment: Pyk2 activity (Y-402 phosphorylation immunoblot) in nontransfected HepG2 cells; format: cell-based, human; conditions: valinomycin 1 nM, thapsigargin 20 nM
Description: (§1) FIG. 11. (A) HepG2 cells were with HBV or HBx(−) HBV genomic DNA. At 24 h post-transfection cells were treated with 1 nM valinomycin (val.) or 20 nM thapsigargin (thap.) for 4 d, cytoplasmic core particles were isolated from equal numbers of cells and viral replication examined by Southern blot hybridization. HBV transcription was analyzed by Northern blot hybridization. (B) Nontransfected HepG2 cells 5were treated with valinomycin or thapsigargin as above, and the abundance of Pyk2 or activated Pyk2 Y-402 phosphorylation determined by immunoblot
Studies next determined whether HBx activity can be replaced by ionophoric agents that increase cytosolic calcium. Cells were transfected with plasmids expressing wild type HBV or HBx(−) genomes and treated for 4 d with low, nontoxic levels of calcium mobilizing agents valinomycin (1 nM) or thapsigargin (20 nM). Reverse transcription and DNA replication of (HBx−)HBV were increased 20 fold by valinomycin to wild type (HBx+) levels, and 10 fold by thapsigargin (FIG. 11A).

[4] = test system: HBV; experiment: HBV mRNA levels, Northern blot, HepG2 cells; format: cell-based, hepatitis B virus; conditions: for cytoplasmic levels of HBV pgRNA and HBsAg mRNAs: HepG2 cells, 4 d, valinomycin 1 nM, thapsigargin 20 nM
Description: (§2) TPA treatment was for […] using 20 ng/ml. […] (C) Chang cells transfected with vector or pAdCMVX were treated 2h with 0.5 mM or 3 mM EGTA, and Pyk2 examined by immunoblot. (D) HepG2 cells were transfected with HBV, HBx(−) HBV genomic DNA or vector, complemented by 2 μg plasmid pAdCMVX. Cytoplasmic HBV core particles were isolated from equal numbers of cells (Klein, et al. 1997, EMBOJ 18: 5019-5027) and viral DNA replication intermediates detected by Southern blot as described (Klein, et al. 1997, EMBOJ 18: 5019-5027). The smear represents 4 kb (mature double-stranded DNA) to 2 kb (first-strand single-stranded DNA). Northern blot analysis was carried out using poly(A+) RNA extracted from equal numbers of cells. (E) Southern and Northern blot analyses were performed on HepG2 cells transfected as above with or without pPKM or PPRKS. Typical experiments are shown.
FIG. 10. […] Products were resolved by electrophoresis and detected by autoradiography. Typical results are shown.
as §1
The requirement for cytosolic calcium and HBx activation of Pyk2 in HBV replication was examined. […]
Studies next determined whether HBx activity can be replaced by ionophoric agents that increase cytosolic calcium. […]

[5] = test system: Pyk2; experiment: Pyk2 Y-402 phosphorylation immunoblot, Chang cells; format: cell-based, human; conditions: for HBx activation of Pyk2: 0.5 mM EGTA 2 h, 50 μM BAPTA-AM 2 h, 3 μM CsA 4 h
Description: FIG. 9. Chang cells or HepG2 cells were transfected with expression vectors pAdCMVX (HBx), pAdCMVXo (HBx−), pPKM, or empty vectors pAdCMV or pPRK5. (A) Chang cells were treated with 50 μM BAPTA-AM for 2 h, equal protein amounts resolved by gel-electrophoresis and immunoblotted with antibodies to Pyk2 or activated Y-402 phosphorylated Pyk2.
as §2
Studies determined whether HBx acts on intracellular calcium to activate Pyk2. […] HBx activation of Pyk2 therefore involves cytosolic calcium action. Studies next determined whether HBx acts on calcium channels in the endoplasmic reticulum (ER), mitochondria or plasma membrane (PM) for its activity.

[6] = Chang cells, high concentration of EGTA (3 mM)

Molecule	increase of reverse transcription and DNA replication of (HBx−)HBV [2]	stimulation of Pyk2 activity [3]	cytoplasmic levels of HBV pgRNA and HBsAg mRNAs [4]	HBx activation of Pyk2 ([5]; Chang cells)	other results
PDGF					activation of c-Src (auto- and trans-phosphorylation) [1]: 3-4 fold
C/C=C(/C)C(=O)O[C@H]1C(C)=C2[C@H]([C@@H]1OC(=O)CCCCCCC)[C@@](C)(OC(C)=O)C[C@H](OC(=O)CCC)[C@@]1(O)[C@H]2OC(=O)[C@@]1(C)O [thapsigargin]	10 fold	3 fold	Neither agent increased		
CC(C)[C@@H]1NC(=O)[C@H](C)OC(=O)[C@@H](C(C)C)NC(=O)[C@@H](C(C)C)OC(=O)[C@H](C(C)C)NC(=O)[C@H](C)OC(=O)[C@@H](C(C)C)NC(=O)[C@@H](C(C)C)OC(=O)[C@H](C(C)C)NC(=O)[C@H](C)OC(=O)[C@@H](C(C)C)NC(=O)[C@@H](C(C)C)OC1=O [valinomycin]	20 fold	5 fold	Neither agent increased		
O=C(O)CN(CCOCCOCCN(CC(=O)O)CC(=O)O)CC(=O)O [EGTA]				no effect	TPA activation of Pyk2 phosphorylation [5, 6]: did not block; activation of Pyk2 by HBx [5, 6]: partially inhibited
CC(=O)OCOC(=O)CN(CC(=O)OCOC(C)=O)c1ccccc1OCCOc1ccccc1N(CC(=O)OCOC(C)=O)CC(=O)OCOC(C)=O [BAPTA-AM]				prevented	impairment of HBV viral DNA replication ([2]; HBV genome transfected HepG2 cells, low levels of BAPTA-AM (2.5 μM or 25 μM) for 4 d): 10 fold; HBV mRNA levels ([4]; HBV genome transfected HepG2 cells, low levels of BAPTA-AM for 4 d): without strongly reducing; HBx-induced Pyk2 phosphorylation at Y-402 ([5]; HBx transfected Chang cells, 50 μM (2 times IC50) for 2 h): prevented; Pyk2 levels ([5]; HBx transfected Chang cells, 50 μM for 2 h): without altering
